For one series, the system named is SK-CO-1 cells. As to the kind of experiment: SK-CO-1 CTG proliferation assay (120 h) (CRC, G12V). Format: cell-based. The following applies: Homo sapiens. On the procedure:
(§1) SK-CO-1 cells (ATCC HTB-39) are dispensed into 384-well plates, flat and clear bottom (Greiner, PNr. 781091) at a density of 500 cells per well in 60 μL EMEM (Sigma M5650)+10% Fetal Calf Serum (HyClone, PNr.: SH30084.03) and incubated at 37° C. in a CO2 incubator overnight. The next day, compounds (10 mM stock in DMSO) are added with the ECHO acoustic liquid handler system (Beckman Coulter), including DMSO controls. Plates are incubated for 120 h, and cell viability is measured using CellTiter-Glo luminescent cell viability reagent (Promega product code G7570). Viability (stated as percent of control) is defined as relative luminescence units RLU of each well divided by the RLU of cells in DMSO controls.

A short description of series [1]: Plasma protein binding assay (PPB), equilibrium dialysis. It is filed as in vitro ADME. To be noted: bovine, 10% FCS in PBS, read-out: PPB 10% FCS (% fu). Here is the method:
Binding of test compounds to plasma was determined using equilibrium dialysis (ED) and quantitative mass spectrometry interfaced with liquid chromatography (LC-MS). In brief, ED was performed with dialysis devices consisting of two chambers separated by a semipermeable membrane with a molecular weight cut-off of 5-10 kg/mol. One chamber was filled with 10% FCS in PBS containing 1-10 μmol/L test compound and the other chamber was filled with phosphate-buffer saline (PBS) with or without dextran. The dialysis chamber was incubated for 3-5 hours at 37° C. After incubation, protein was precipitated from aliquots of each chamber and the concentration of test compound in the supernatant of the plasma-containing compartment (cserum) and of the buffer-containing compartment (cbuffer) was determined by LC-MS. The fraction of unbound test compound (not bound to plasma) (fu) was calculated according to the following equation: […]
On the technique in general: Equilibrium dialysis compares concentrations on both sides of a semipermeable membrane.

Another series has as its system AsPC-1 cells. As to the kind of experiment: AsPC-1 CTG proliferation assay (120 h) (pancreatic cancer, G12D). Format: cell-based. The following applies: Homo sapiens, ASPC1. Here is the method:
The CTG assay is designed to measure quantitatively the proliferation of AsPC-1 cells (ATCC CRL-5985), using the CellTiter Glow Assay Kit (Promega G7571). Cells are grown in RPMI medium (ATCC) supplemented with Fetal Calf Serum (Life Technologies, Gibco BRL, Cat. No. 10270-106). On “day 0” 2000 AsPC-1 cells are seeded in 60 μL RPMI ATCC+10% FCS+ Penstrep in a 384-well plate, flat and clear bottom (Greiner, PNr. 781091). Cells are then incubated in the plates at 37° C. in a CO2 incubator overnight. On day 1, compounds (10 mM stock in DMSO) are added with the ECHO acoustic liquid handler system (Beckman Coulter), including DMSO controls. Plates are incubated for 120 h, and cell viability is measured using CellTiter-Glo luminescent cell viability reagent (Promega product code G7570). Viability (stated as percent of control) is defined as relative luminescence units RLU of each well divided by the RLU of cells in DMSO controls.

For the next series, the target named is KRAS G12D Ba/F3 (Homo sapiens, UniProt P01116, G12D, cells depend on it). As to the kind of experiment: Ba/F3 proliferation assay, KRAS G12D. Format: cell-based. The following applies: 72 h, AlamarBlue, read-out: KRAS G12D Ba/F3 IC50. On the procedure:
(§2) Plasmids containing KRASG12 mutants(i.e. G12D, G12C, G12V) are obtained from GeneScript. To generate KRASG12-dependent Ba/F3 models, Ba/F3 cells are transduced with retroviruses containing vectors that harbor KRASG12 isoforms. Platinum-E cells (Cell Biolabs) are used for retrovirus packaging. Retrovirus is added to Ba/F3 cells. To ensure infection, 4 μg/mL polybrene is added and cells are spinfected. […] Cells with an infection efficiency of 10% to 20% are further cultivated and puromycin selection with 1 μg/mL is initiated. As a control, parental Ba/F3 cells are used to show selection status. Selection is considered successful when parental Ba/F3 cells cultures died. To evaluate the transforming potential of KRASG12 mutations, the growth medium is no longer supplemented with IL-3. Ba/F3 cells harboring the empty vector are used as a control. Approximately ten days before conducting the experiments, puromycin is left out.
(§3) Compounds are added using an Access Labcyte Workstation with a Labcyte Echo 550 or 555 accoustic dispenser. All treatments are performed in technical duplicates. […] AlamarBlue™ (ThermoFisher), a viability stain, is added and fluorescence measured in the PerkinElmer Envision HTS Multilabel Reader. The raw data are imported into and analyzed with the Boehringer Ingelheim proprietary software MegaLab (curve fitting based on the program PRISM, GraphPad Inc.).
(In general: The colour change of resazurin is a common sign of viable cells or microbes.)

Another series concerns SAS cells. As to the kind of experiment: SAS CTG proliferation assay (120 h) (HNSCC, wt amplified). Format: cell-based. Here is the method: as §1, with “SAS” for “SK-CO-1”, “(JCRB0260)” for “(ATCC HTB-39)”, “300” for “500”, “DMEM:F12 (Gibco 31330-038)+10%” for “EMEM (Sigma M5650)+10%”, “overnight” for “overnight.”
The next series deals with KRAS G12V Ba/F3 (Homo sapiens, UniProt P01116, G12V, cells depend on it). The series can be described thus: Ba/F3 proliferation assay, KRAS G12V. It is filed as cell-based. The following applies: 72 h, AlamarBlue, read-out: KRAS G12V Ba/F3 IC50. Here is the method:
as §2, §3

SMILES strings stand for the structures.

By IC50 is commonly meant the concentration that gives 50% inhibition. The low end stands for higher potency, the high end for lower potency.

Sequence of KRAS G12V Ba/F3 (P01116 whole entry G12V): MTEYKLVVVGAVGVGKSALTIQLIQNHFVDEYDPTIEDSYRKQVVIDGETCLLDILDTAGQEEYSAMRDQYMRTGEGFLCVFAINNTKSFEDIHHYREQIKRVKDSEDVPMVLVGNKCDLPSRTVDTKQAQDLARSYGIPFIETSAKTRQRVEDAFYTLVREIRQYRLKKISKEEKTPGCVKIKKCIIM
Sequence of KRAS G12D Ba/F3 (P01116 whole entry G12D, canonical isoform): as the sequence (P01116 whole entry G12V) above, with V12D counted along it

With `C[C@H](Oc1cc(N(C)CCN(C)C)nc(-c2noc3c2CCC[C@@]32CCCc3sc(N)c(C#N)c32)n1)[C@@H]1CCCN1C` [II-20], the 50% inhibitory concentration (IC50) in the series on SK-CO-1 cells worked out at 900 nM; with AsPC-1 cells it was 3580 nM; in the series on SAS cells, 327 nM. In series [1], the fraction unbound was 0.8. In addition, the GI50 at KRAS G12D Ba/F3 came out at 304 nM; on KRAS G12V Ba/F3, 303 nM.
Regarding `C[C@H](Oc1cc(Oc2cncnc2)nc(-c2noc3c2CCC[C@@]32CCCc3sc(N)c(C#N)c32)n1)[C@@H]1CCCN1C` [II-1], the IC50 in the series on SK-CO-1 cells was 18 nM; with AsPC-1 cells it was 699 nM; with SAS cells, 20 nM. For the same molecule, the fraction unbound in series [1] worked out at 0.19. Further, the GI50 at KRAS G12D Ba/F3 amounted to 6 nM; on KRAS G12V Ba/F3, 4 nM.
Take `C[C@H](Oc1cc(Nc2cnccn2)nc(-c2noc3c2CCC[C@@]32CCCc3sc(N)c(C#N)c32)n1)[C@@H]1CCCN1C` [II-14]: the figures for the IC50 with SK-CO-1 cells, in the series on AsPC-1 cells and in the series with SAS cells were 115 nM, 3180 nM and 285 nM, respectively. The fraction unbound in series [1] came to 0.1. In addition, the results for the GI50 on KRAS G12D Ba/F3 and on KRAS G12V Ba/F3 were 59 nM and 7 nM, respectively.
Consider `C[C@H](Oc1cc(Nc2cccnn2)nc(-c2noc3c2CCC[C@@]32CCCc3sc(N)c(C#N)c32)n1)[C@@H]1CCCN1C` [II-18], for which the IC50 stood at 133 nM in the series with SK-CO-1 cells, 3010 nM with AsPC-1 cells and 171 nM in the series on SAS cells. In series [1], the fraction unbound was determined as 0.61. Also, the values for the GI50 on KRAS G12D Ba/F3 and at KRAS G12V Ba/F3 were 46 nM and 11 nM, respectively.
Turning to `C[C@H](Oc1cc(Nc2ccccn2)nc(-c2onc3c2CCC[C@@]32CCCc3sc(N)c(C#N)c32)n1)[C@@H]1CCCN1C` [Example I-6], the half-inhibitory concentration (IC50) with SK-CO-1 cells came to 273 nM; in the series on AsPC-1 cells, 3360 nM; in the series with SAS cells, 81 nM. The fraction unbound in series [1] came out at 0.31. The GI50 is 47 nM on KRAS G12D Ba/F3 and 14 nM at KRAS G12V Ba/F3.
`C[C@H](Oc1cc(Oc2cncnc2)nc(-c2onc3c2CCC[C@@]32CCCc3sc(N)c(C#N)c32)n1)[C@@H]1CCCN1C` [Example I-3]: the 50% inhibitory concentration (IC50) was 29 nM in the series with SK-CO-1 cells, 682 nM with AsPC-1 cells and 14 nM in the series on SAS cells. Besides, the fraction unbound in series [1] is 0.57. The GI50 stood at 5 nM on KRAS G12D Ba/F3 and 2 nM at KRAS G12V Ba/F3.
Take `C[C@H](Oc1cc(OCC2(N(C)C)CC2)nc(-c2noc3c2CCC[C@@]32CCCc3sc(N)c(C#N)c32)n1)[C@@H]1CCCN1C` [II-21]: the IC50 in the series with SK-CO-1 cells is 977 nM; in the series with AsPC-1 cells, 277 nM; in the series with SAS cells it was 577 nM. Further, the fraction unbound in series [1] stood at 0.72. Further, the GI50 at KRAS G12D Ba/F3 stood at 22 nM; on KRAS G12V Ba/F3, 237 nM.
Turning to `C[C@H](Oc1cc(NCC2COC2)nc(-c2noc3c2CCC[C@@]32CCCc3sc(N)c(C#N)c32)n1)[C@@H]1CCCN1C` [II-11], the figures for the IC50 in the series with SK-CO-1 cells, in the series on AsPC-1 cells and with SAS cells were 46 nM, 2270 nM and 21 nM, respectively. Moreover, the fraction unbound in series [1] turned out to be 0.62. For the same molecule, the GI50 at KRAS G12D Ba/F3 was determined as 28 nM; on KRAS G12V Ba/F3 it was 29 nM.
For `C[C@H](Oc1cc(Oc2ccon2)nc(-c2noc3c2CCC[C@@]32CCCc3sc(N)c(C#N)c32)n1)[C@@H]1CCCN1C` [II-3], the IC50 in the series on SK-CO-1 cells came out at 84 nM; with AsPC-1 cells, 1980 nM; in the series with SAS cells, 67 nM. In addition, in series [1], the fraction unbound came to 0.12. The GI50 at KRAS G12D Ba/F3 was found to be 27 nM; at KRAS G12V Ba/F3, 9 nM.
As to `C[C@H](Oc1cc(Nc2ncccn2)nc(-c2noc3c2CCC[C@@]32CCCc3sc(N)c(C#N)c32)n1)[C@@H]1CCCN1C` [II-17], the IC50 in the series with SK-CO-1 cells came out at 60 nM; with AsPC-1 cells it was 2720 nM; in the series on SAS cells it was 104 nM. For the same molecule, the fraction unbound in series [1] was 0.28. Also, the GI50 on KRAS G12D Ba/F3 was determined as 33 nM; at KRAS G12V Ba/F3 it was 10 nM.
Regarding `C[C@H](Oc1cc(Nc2ccccn2)nc(-c2noc3c2CCC[C@@]32CCCc3sc(N)c(C#N)c32)n1)[C@@H]1CCCN1C` [II-16], the fraction unbound in series [1] was found to be 0.37. Also, the GI50 on KRAS G12D Ba/F3 amounted to 43 nM; on KRAS G12V Ba/F3, 11 nM.
Take `C[C@H](Oc1cc(O[C@H]2CNC(C)(C)C2)nc(-c2noc3c2CCC[C@@]32CCCc3sc(N)c(C#N)c32)n1)[C@@H]1CCCN1C` (single isomer, unassigned) [II-8]: the values for the 50% inhibitory concentration (IC50) in the series with SK-CO-1 cells, in the series with AsPC-1 cells and in the series on SAS cells were 774 nM, 1720 nM and 2600 nM, respectively. Moreover, in series [1], the fraction unbound stood at 0.59. In addition, the figures for the GI50 on KRAS G12D Ba/F3 and at KRAS G12V Ba/F3 were 388 nM and 869 nM, respectively.
`C[C@H](Oc1cc(Nc2ccncn2)nc(-c2noc3c2CCC[C@@]32CCCc3sc(N)c(C#N)c32)n1)[C@@H]1CCCN1C` [II-15]: the values for the half-maximal inhibitory concentration (IC50) in the series on SK-CO-1 cells, in the series on AsPC-1 cells and in the series on SAS cells were 91 nM, 3550 nM and 87 nM, respectively. In addition, the fraction unbound in series [1] came to 0.5. The results for the GI50 on KRAS G12D Ba/F3 and on KRAS G12V Ba/F3 were 59 nM and 12 nM, respectively.
As for `C[C@H](Oc1cc(OCC2(N(C)C)COC2)nc(-c2onc3c2CCC[C@@]32CCCc3sc(N)c(C#N)c32)n1)[C@@H]1CCCN1C` [Example I-8], the IC50 was found to be 401 nM in the series on SK-CO-1 cells, 272 nM in the series with AsPC-1 cells and 51 nM with SAS cells. For the same molecule, in series [1], the fraction unbound is 0.45. For the same molecule, the GI50 was 11 nM on KRAS G12D Ba/F3 and 85 nM on KRAS G12V Ba/F3.
Turning to `C[C@H](Oc1cc(OCC2(N(C)C)COC2)nc(-c2noc3c2CCC[C@@]32CCCc3sc(N)c(C#N)c32)n1)[C@@H]1CCCN1C` [II-22], the IC50 is 354 nM in the series on SK-CO-1 cells, 298 nM in the series on AsPC-1 cells and 84 nM in the series with SAS cells. In series [1], the fraction unbound was 0.46. Further, the figures for the GI50 at KRAS G12D Ba/F3 and at KRAS G12V Ba/F3 were 6 nM and 35 nM, respectively.
For the molecule `COc1c(OCC2(N(C)C)COC2)nc(-c2noc3c2CCC[C@@]32CCCc3sc(N)c(C#N)c32)nc1O[C@@H](C)[C@@H]1CCCN1C` [II-25], the IC50 was 326 nM in the series with SK-CO-1 cells, 571 nM in the series on AsPC-1 cells and 55 nM in the series on SAS cells. Also, in series [1], the fraction unbound amounted to 0.48. The GI50 is 15 nM at KRAS G12D Ba/F3 and 137 nM on KRAS G12V Ba/F3.
`COC[C@H](C)Nc1cc(O[C@@H](C)[C@@H]2CCCN2C)nc(-c2onc3c2CCC[C@@]32CCCc3sc(N)c(C#N)c32)n1` [Example I-5]: in series [1], the fraction unbound worked out at 0.45. The GI50 on KRAS G12D Ba/F3 was determined as 122 nM; on KRAS G12V Ba/F3, 67 nM.
